The text below walks through data of patent US20260159520A1, “HETEROBIFUNCTIONAL COMPOUNDS AND METHODS OF TREATING DISEASE” (Halda Therapeutics OpCo, Inc., priority 2022, published 2026).

Common to all, as to type: cell-based
The test system of experiment [1] is T-Rex 293 cell line SC3 cells lacking increased expression of androgen receptor protein. Kind of experiment: Cellular growth inhibition, T-Rex 293 SC3 cells without doxycycline. The conditions noted are these: not exposed to doxycycline, 72 hours, CellTiter-Glo 2.0. In short, it runs like this: (§1)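 Growth inhibition is measured in an inducible AR-expressing T-Rex 293 clone, SC3, cultured with or without 10 ng/mL doxycycline in hormone-depleted medium. Test compounds are applied for 72 hours. GI50 values derive from CellTiter-Glo 2.0 signal fitted by four-parameter regression.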

Experiment [2] relates to T-Rex 293 cell line SC3 cells having increased expression of androgen receptor protein. Nature of the experiment: Cellular growth inhibition, T-Rex 293 SC3 cells with doxycycline (increased androgen receptor expression). The settings on record: with 10 ng/mL doxycycline (increased androgen receptor), 72 hours, CellTiter-Glo 2.0. In short, it runs like this:
as §1

Experiment [3] concerns T-Rex 293 cell line SC cells lacking increased expression of progesterone receptor isoform B protein. Kind of experiment: Cellular growth inhibition, T-Rex 293 SC cells without doxycycline. The conditions noted are these: not exposed to doxycycline, 72 hours, CellTiter-Glo 2.0. The procedure:
(§2) The following types of cells were prepared for this experiment: (i) a T-Rex 293 cell line having increased expression of progesterone receptor isoform B protein due to exposure to doxycycline and (ii) a T-Rex 293 cell line lacking increased expression of progesterone receptor isoform B protein. Ability of the test compounds to inhibit proliferation of the foregoing cell types was evaluated according to the procedures set forth below.
(§3) The doxycycline-inducible progesterone receptor isoform B protein expressing cell line was established using the following protocol: T-Rex 293 cells were purchased from Invitrogen (Cat #R71007) and transfected using Lipofectamine 2000 with the wild-type progesterone receptor B protein sequence cloned into the pcDNA4/TO vector. Transfected cells were selected using 400 μg/mL Zeocin (Invitrogen Cat #R25001). Following selection, single clones were raised and maintained in Dulbecco's Modified Eagle Medium (DMEM) supplemented with 10% w/w Tetracycline-free fetal bovine serum (FBS) and 250 μg/mL Zeocin. Clones were analyzed for expression of progesterone receptor isoform B protein in the presence and absence of 10 ng/mL doxycycline (Sigma Cat #D9891), and a single doxycycline-inducible clone (hereinafter “SC”) was selected for use in downstream assays.
(§4) The SC cells were seeded on poly-D-lysine coated, black clear-bottom 384-well plates at 2500/well, in 25 μL Phenol Red Free Dulbecco's Modified Eagle Medium (DMEM) supplemented with 10% w/w charcoal-dextran treated fetal bovine serum (FBS) and 1% w/w pen-strep, with or without 10 ng/mL doxycycline. Pen-Strep is a commercially available mixture of penicillin G and streptomycin, which is used in mammalian cell culture media to prevent bacterial contamination. Phenol Red Free Dulbecco's Modified Eagle Medium (DMEM) supplemented with 10% w/w charcoal-dextran treated fetal bovine serum (FBS) and 1% w/w pen-strep, with or without 10 ng/mL doxycycline is herein referred to as Treatment Medium. Following seeding of cells in the plates, the plates were spun at 300×g for 30 seconds, then equilibrated to room temperature for 30 minutes, and then deposited in a humidified tissue culture incubator maintained at 37° C. with 5% CO2.
(§5) At 24 hours after seeding of the cells, dilutions of test compound were prepared in DMSO and dissolved in Treatment Medium, to achieve a final DMSO concentration of 0.5% w/w, thereby providing the Test Compound Solution. A 25 μL aliquot of the Test Compound Solution was added to cells in the well plates. An equal volume of a solution containing DMSO and Treatment Medium was used as a negative control. Following treatment of cells with Test Compound Solution or said equal volume of a solution containing DMSO and Treatment Medium, the plates were spun at 300×g for 30 seconds, and then left in an incubator for 72 hours.
(§6) At the end of the treatment duration, cell viability was quantified with CellTiter-Glo 2.0 reagent (Promega Cat #G9243). For this purpose, plates were equilibrated to room temperature for 30 minutes, and then 25 μL of CellTiter-Glo 2.0 reagent was added to cells in the plate wells. Plates were then agitated on a shaker for two minutes at 500 rpm and subsequently incubated at room temperature for 10 minutes. Following incubation, the plates were spun at 3000×g for 30 seconds, then sealed with an optical adhesive cover, and luminescence readings were measured with an EnVision Plate Reader (Perkin Elmer).
(§7) Data was normalized using zero luminescence for baseline. A four-parameter non-linear regression curve fit was applied to dose-response data in GraphPad Prism data analysis software to determine the half-maximal growth inhibitory concentration (GI50) for each test compound.

Experiment [4] relates to T-Rex 293 cell line SC cells having increased expression of progesterone receptor isoform B protein. Kind of experiment: Cellular growth inhibition, T-Rex 293 SC cells with doxycycline (increased progesterone receptor isoform B expression). The conditions noted are these: with 10 ng/mL doxycycline (increased progesterone receptor isoform B), 72 hours, CellTiter-Glo 2.0. The procedure: as §2, §3, §4, §5, §6, §7

The test system of the next experiment is T47D cells. Nature of the experiment: Cellular growth inhibition assay for T47D cells. The conditions noted are these: Homo sapiens, 72 hours, CellTiter-Glo 2.0. In short, it runs like this: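 Luminescence from CellTiter-Glo 2.0 after 72 h of compound exposure gives the viability signal. Cells grew in insulin-supplemented (0.2 units/mL) DMEM with 10% FBS and were treated one day after seeding at 0.5% DMSO. GI50 values come from four-parameter nonlinear regression.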

For another experiment, the system named is VCaP cells. Kind of experiment: Cellular growth inhibition assay for VCaP cells. The settings on record: Homo sapiens, 72 hours, CellTiter-Glo 2.0.

Take `CCc1cnn2c(NCc3ccc(OCCOCCOCCN(C)c4ncc(C(=O)N[C@H]5C(C)(C)[C@H](Oc6ccc(C#N)c(Cl)c6)C5(C)C)cn4)nc3)cc(N3CCCC[C@H]3CCO)nc12` [Compound I-2, N-((1r,3r)-3-(3-chloro-4-cyanophenoxy)-2,2,4,4-tetra-methylcyclobutyl)-2-((2-(2-(2-((5-(((3-ethyl-5-((S)-2-(2-hydroxyethyl)piperidin-1-yl)pyrazolo[1,5-a]pyrimidin-7-yl)amino)methyl)pyridin-2-yl)oxy)ethoxy)ethoxy)ethyl)(methyl)amino)pyrimidine-5-carboxamide]: the GI50 in experiment [1] is 100 to 1000 nM; in experiment [2] it was 100 to 1000 nM; in experiment [3], less than 500 nM; in experiment [4], less than 500 nM.
As for `CC1(C)[C@H](NC(=O)c2cnc(N3CCC(OCCOCCOCCNS(=O)(=O)c4ccc(Nc5ncc(Br)c(Nc6cccc(F)c6C(N)=O)n5)cc4)CC3)nc2)C(C)(C)[C@H]1Oc1ccc(C#N)c(Cl)c1` [Compound I-14], the GI50 in experiment [1] was greater than 3500 nM; in the experiment with T47D cells, 500 to 1500 nM; in experiment [2], greater than 3500 nM; in experiment [3], greater than 3000 nM; in experiment [4], greater than 3000 nM.
Consider `CCc1cnn2c(NCc3ccc(OCCCCOC4CCN(c5ncc(C(=O)N[C@H]6C(C)(C)[C@H](Oc7ccc(C#N)c(Cl)c7)C6(C)C)cn5)CC4)nc3)cc(N3CCCC[C@H]3CCO)nc12` [Compound I-27], for which the concentration for 50% growth inhibition (GI50) in experiment [1] was greater than 3500 nM; in experiment [2], 100 to 1000 nM; in experiment [3], greater than 3000 nM; in experiment [4], less than 500 nM.
As to `CCc1cnn2c(NCc3ccc(OCCOCCOCCOCCOCCOCCOCCOC4CCN(c5ncc(C(=O)N[C@H]6C(C)(C)[C@H](Oc7ccc(C#N)c(Cl)c7)C6(C)C)cn5)CC4)nc3)cc(N3CCCC[C@H]3CCO)nc12` [Compound I-10], the GI50 in experiment [1] is 100 to 1000 nM; in the experiment on VCaP cells, less than 100 nM; in experiment [2], less than 100 nM; in experiment [3], less than 500 nM; in experiment [4], less than 500 nM.
